What was measured:
MV4-11 [1] = experiment: Antiproliferative activity against human MV4-11 cells assessed as cell growth inhibition incubated for 72 hrs by CellTiter-Glo assay; format: functional, cell-based; details: MV4-11, 72 h
[2] = Metabolic stability in human liver microsomes assessed as elimination half life incubated for 1 hr by LC-MS/MS analysis; format: ADME, Microsome; details: read-out: beta t1/2
[3] = Metabolic stability in dog liver microsomes assessed as elimination half life incubated for 1 hr by LC-MS/MS analysis; format: ADME, Canis lupus familiaris, Microsome; details: read-out: beta t1/2
[4] = Metabolic stability in rat liver microsomes assessed as elimination half life incubated for 1 hr by LC-MS/MS analysis; format: ADME, Microsome; details: read-out: beta t1/2
[5] = Metabolic stability in human liver microsomes assessed as intrinsic clearance incubated for 1 hr by LC-MS/MS analysis; format: ADME, Microsome; details: read-out: CLH
[6] = Metabolic stability in dog liver microsomes assessed as intrinsic clearance incubated for 1 hr by LC-MS/MS analysis; format: ADME, Canis lupus familiaris, Microsome; details: read-out: CLH
[7] = Metabolic stability in rat liver microsomes assessed as intrinsic clearance incubated for 1 hr by LC-MS/MS analysis; format: ADME, Microsome; details: read-out: CLH
[8] = Metabolic stability in human liver assessed as intrinsic clearance incubated for 1 hr by LC-MS/MS analysis; format: ADME, tissue-based; details: read-out: CLH
[9] = Metabolic stability in monkey liver assessed as intrinsic clearance incubated for 1 hr by LC-MS/MS analysis; format: ADME, tissue-based, Macaca mulatta; details: rhesus monkey, read-out: CLH
[10] = Metabolic stability in dog liver assessed as intrinsic clearance incubated for 1 hr by LC-MS/MS analysis; format: ADME, tissue-based, Canis lupus familiaris; details: read-out: CLH
[11] = Metabolic stability in rat liver assessed as intrinsic clearance incubated for 1 hr by LC-MS/MS analysis; format: ADME, tissue-based; details: read-out: CLH
[12] = AUC (0 to infinity) in Sprague-Dawley rat at 1 mg/kg, iv by LC-MS/MS analysis; format: ADME, organism-based; set-up: time infinity, dose 1 mg/kg, route iv; details: in vivo
[13] = C0 in Sprague-Dawley rat at 1 mg/kg, iv by LC-MS/MS analysis; format: ADME, organism-based; details: in vivo
[14] = Half life in Sprague-Dawley rat at 1 mg/kg, iv by LC-MS/MS analysis; format: ADME, organism-based; details: in vivo
[15] = Cmax in Sprague-Dawley rat at 10 mg/kg, po by LC-MS/MS analysis; format: ADME, organism-based; set-up: dose 10 mg/kg, route po; details: in vivo
[16] = Tmax in Sprague-Dawley rat at 10 mg/kg, po by LC-MS/MS analysis; format: ADME, organism-based; details: in vivo
NCI-H522 = experiment: Antiproliferative activity against human NCI-H522 cells assessed as cell growth inhibition measured after 72 hrs by CellTiter-Glo assay; format: functional
HCT-15 = experiment: Antiproliferative activity against human HCT-15 cells assessed as cell growth inhibition measured after 72 hrs by CellTiter-Glo assay; format: functional
SNB-75 = experiment: Antiproliferative activity against human SNB-75 cells assessed as cell growth inhibition measured after 72 hrs by CellTiter-Glo assay; format: functional
UACC-62 = experiment: Antiproliferative activity against human UACC-62 cells assessed as cell growth inhibition measured after 72 hrs by CellTiter-Glo assay; format: functional
CAKI-1 = experiment: Antiproliferative activity against human CAKI-1 cells assessed as cell growth inhibition measured after 72 hrs by CellTiter-Glo assay; format: functional
MDA-MB-468 = experiment: Antiproliferative activity against human MDA-MB-468 cells assessed as cell growth inhibition measured after 72 hrs by CellTiter-Glo assay; format: functional
MV4-11 [17] = experiment: Induction of cell cycle arrest in human MV4-11 cells assessed as accumulation of cells at G0/G1 phase at 100 nM incubated for 48 hrs by propidium iodide staining based flow cytometric analysis (reference value: 65.71%); format: functional
MV4-11 [18] = experiment: Induction of cell cycle arrest in human MV4-11 cells assessed as accumulation of cells at G2/M phase at 100 nM incubated for 48 hrs by propidium iodide staining based flow cytometric analysis (reference value: 8%); format: functional
MV4-11 [19] = experiment: Induction of cell cycle arrest in human MV4-11 cells assessed as accumulation of cells at S phase at 100 nM incubated for 48 hrs by propidium iodide staining based flow cytometric analysis (reference value: 26.29%); format: functional
MV4-11 [20] = experiment: Induction of cell cycle arrest in human MV4-11 cells assessed as accumulation of cells at G0/G1 phase at 200 nM incubated for 48 hrs by propidium iodide staining based flow cytometric analysis (reference value: 65.71%); format: functional
MV4-11 [21] = experiment: Induction of cell cycle arrest in human MV4-11 cells assessed as accumulation of cells at G2/M phase at 200 nM incubated for 48 hrs by propidium iodide staining based flow cytometric analysis (reference value: 8%); format: functional
MV4-11 [22] = experiment: Induction of cell cycle arrest in human MV4-11 cells assessed as accumulation of cells at S phase at 200 nM incubated for 48 hrs by propidium iodide staining based flow cytometric analysis (reference value: 26.29%); format: functional
[23] = Induction of cell apoptosis in human MV4-11 cells assessed as early apoptotic cells at 200 nM incubated for 48 hrs by Annexin V-FITC/Propidium iodide staining based flow cytometry analysis (reference value: 1.42%); format: functional
[24] = Induction of cell apoptosis in human MV4-11 cells assessed as […] cells at 200 nM incubated for 48 hrs by Annexin V-FITC/Propidium iodide staining based flow cytometry analysis (reference value: 96.6%); format: functional
[25] = Induction of cell apoptosis in human MV4-11 cells assessed as early apoptotic cells at 500 nM incubated for 48 hrs by Annexin V-FITC/Propidium iodide staining based flow cytometry analysis (reference value: 1.42%); format: functional
[26] = Induction of cell apoptosis in human MV4-11 cells assessed as late apoptotic cells at 500 nM incubated for 48 hrs by Annexin V-FITC/Propidium iodide staining based flow cytometry analysis (reference value: 1.99%); format: functional
[27] = Induction of cell apoptosis in human MV4-11 cells assessed as […] cells at 500 nM incubated for 48 hrs by Annexin V-FITC/Propidium iodide staining based flow cytometry analysis (reference value: 96.6%); format: functional
[28] = Induction of cell apoptosis in human MV4-11 cells assessed as early apoptotic cells at 1000 nM incubated for 48 hrs by Annexin V-FITC/Propidium iodide staining based flow cytometry analysis (reference value: 1.42%); format: functional
[29] = Induction of cell apoptosis in human MV4-11 cells assessed as late apoptotic cells at 1000 nM incubated for 48 hrs by Annexin V-FITC/Propidium iodide staining based flow cytometry analysis (reference value: 1.99%); format: functional
[30] = Induction of cell apoptosis in human MV4-11 cells assessed as […] cells at 1000 nM incubated for 48 hrs by Annexin V-FITC/Propidium iodide staining based flow cytometry analysis (reference value: 96.6%); format: functional
MV4-11 [31] = experiment: Antitumor activity against human MV4-11 cells xenografted BALB/c nude mouse model assessed as tumor growth inhibition at 20 mg/kg, po QD administered for 28 consecutive days; format: functional; details: MV4-11, 672 h, time 28 day, read-out: TGI
MV4-11 [32] = experiment: Antitumor activity against human MV4-11 cells xenografted BALB/c nude mouse model assessed as tumor growth inhibition at 40 mg/kg, po QD administered for 28 consecutive days; format: functional; details: MV4-11, 672 h, time 28 day, read-out: TGI
[33] = Toxicity in BALB/c nude mouse xenografted with human MV4-11 cells assessed as effect on body weight at 20 to 80 mg/kg, po QD administered for 28 consecutive days; format: organism-based; details: in vivo, 672 h, dose 20-80 mg/kg, time 28 day

CC(=O)c1c(C)[nH]c(-c2nc3cc(N4CCN(C)CC4)ccc3[nH]2)c1-c1ccccc1
IC50 (MV4-11 [1]): 0.015 µM
half-life [2]: 3.32 h
half-life [3]: 0.25 h
half-life [4]: 1.11 h
microsomal CLint [5]: 7.03 µL/min/mg
microsomal CLint [6]: 92.2 µL/min/mg
microsomal CLint [7]: 20.9 µL/min/mg
CLint scaled [8]: 6.64 mL/min/kg
CLint scaled [9]: 23.8 mL/min/kg
CLint scaled [10]: 133 mL/min/kg
CLint scaled [11]: 37.6 mL/min/kg
AUC(0-inf) [12]: 725 ng·h/mL
C0 [13]: 548 ng/mL
half-life [14]: 1.86 h
Cmax [15]: 1270 ng/mL
Tmax [16]: 3.33 h
GI50 (NCI-H522): 0.258 µM
GI50 (HCT-15): 0.261 µM
GI50 (SNB-75): 0.0416 µM
GI50 (UACC-62): 0.274 µM
GI50 (CAKI-1): 0.211 µM
GI50 (MDA-MB-468): 0.361 µM
Activity (MV4-11 [17]): 75.41%
Activity (MV4-11 [18]): 6.33%
Activity (MV4-11 [19]): 18.26%
Activity (MV4-11 [20]): 87.4%
Activity (MV4-11 [21]): 2.92%
Activity (MV4-11 [22]): 9.68%
Activity [23]: 5.31%
Activity [24]: 89.7%
Activity [25]: 16.9%
Activity [26]: 76.4%
Activity [27]: 6.31%
Activity [28]: 39.3%
Activity [29]: 12.2%
Activity [30]: 48.2%
inhibition in vivo at 20 mg/kg (MV4-11 [31]): 48.7%
inhibition in vivo at 40 mg/kg (MV4-11 [32]): 103%
Activity [33]: Non-Toxic

Reference: ChEMBL document CHEMBL5136977, “Discovery of 1-(5-(1H-benzo[d]imidazole-2-yl)-2,4-dimethyl-1H-pyrrol-3-yl)ethan-1-one derivatives as novel and potent bromodomain and extra-terminal (BET) inhibitors with anticancer efficacy” (Eur J Med Chem, 2022)
